Source: patent US20070213355A1, “1H-Imidazo[4,5-C]Quinoline Derivatives in the Treatment of Protein Kinase Dependent Diseases” (priority 2003, published 2007)

Target: T1, PDK1 (Homo sapiens, UniProt O15530)
T1 construct: release a DNA fragment encoding amino acids 52-556 of PDK1; made in house; host or cells: Sf9 insect cells (baculovirus)
T1 sequence (O15530 52-556): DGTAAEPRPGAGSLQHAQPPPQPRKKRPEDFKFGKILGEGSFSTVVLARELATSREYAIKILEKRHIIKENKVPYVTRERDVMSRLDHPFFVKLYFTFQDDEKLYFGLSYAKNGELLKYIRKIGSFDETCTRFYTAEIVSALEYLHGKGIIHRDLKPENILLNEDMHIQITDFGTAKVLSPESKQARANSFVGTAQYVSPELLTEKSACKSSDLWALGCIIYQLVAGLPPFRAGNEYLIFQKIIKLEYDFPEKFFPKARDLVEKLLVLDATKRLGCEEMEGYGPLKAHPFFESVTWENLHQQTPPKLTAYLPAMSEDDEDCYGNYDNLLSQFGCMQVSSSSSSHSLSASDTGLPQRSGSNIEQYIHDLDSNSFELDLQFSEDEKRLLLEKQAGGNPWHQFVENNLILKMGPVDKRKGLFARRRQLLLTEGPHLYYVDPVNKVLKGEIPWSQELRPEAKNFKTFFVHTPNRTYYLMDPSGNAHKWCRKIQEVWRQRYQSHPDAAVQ
Experiment: PDK1 kinase inhibition, purified GST-PDK1, 33P-ATP filter assay
Format: biochemical
Settings: GST-PDK1, 10.0 μM ATP, casein substrate; read-out: IC50 for PDK1 inhibition (range class)
Text: PDK1 inhibition can be measured as follows: Cloning and expression: pCMV-GST-PDK1 (G Thomas, FMI Basel, as described in Pullen, N. et al., Science, 279:707-710 (1998)) is digested with EcoR1 and Sma1 to release a DNA fragment encoding amino acids 52-556 of PDK1. This is subsequently ligated to the vector pFB-G01-GST1 with compatible ends achieved by restriction digestion with EcoR1 and Stu1. The ligation reaction is transformed into XL-1 Blue bacteria and plated on selective LB agar. Resultant colonies are cultured overnight, plasmid DNA extracted and restriction analysed. Colonies that are found to contain plasmids with the correct insert are taken for large-scale plasmid preparation and subsequent sequence analysis to confirm the expected plasmid sequence.
Production of virus: Transfer vectors containing the kinase domain of PDK1 are transfected into the DH10Bac cell line (GIBCO) and the cells are plated on selective agar plates. Colonies without insertion of the fusion sequence into the viral genome (carried by the bacteria) are blue. Single, white colonies are picked and viral DNA (bacmid) is isolated from the bacteria by standard plasmid purification procedures. Sf9 cells or Sf21 cells (American Type Culture Collection) are then transfected in 25 cm^2 flasks with the viral DNA using Celifectin reagent.
Protein expression in Sf9 cells: Virus-containing media is collected from the transfected cell culture and used for infection to increase its titer. Virus-containing media obtained after two rounds of infection is used for large-scale protein expression. For large-scale protein expression 100 cm^2 round tissue culture plates are seeded with 5×10^7 cells/plate and infected with 1 mL of virus-containing media (approx. 5 MOIs). After 3 days, the cells are scraped off the plate and centrifuged at 500 rpm for 5 minutes. Cell pellets from 10-20, 100 cm^2 plates are resuspended in 50 mL of ice-cold lysis buffer (25 mM Tris-HCl, pH 7.5, 2 mM EDTA, 1% NP-40, 1 mM DTT, 1 mMP MSF). The cells are stirred on ice for 15 minutes and then centrifuged at 5,000 rpms for 20 minutes.
Purification of GST-tagged proteins: The centrifuged cell lysate is loaded onto a 2 mL glutathione-sepharose column (Pharmacia) and washed 3× with 10 mL of 25 mM Tris-HCl, pH 7.5, 2 mM EDTA, 1 mM DTT, 200 mM NaCl. The GST-tagged proteins are then eluted by 10 applications (1 mL each) of 25 mM Tris-HCl, pH 7.5, 10 mM reduced-glutathione, 100 mM NaCl, 1 mM DTT, 10% glycerol and stored at −70° C.
Measure of enzyme activity: Tyrosine protein kinase assays with purified GST-PDK1 are carried out in a final volume of 30 μL containing 100 ng of enzyme protein, 50 mM HEPES, pH 7.6, 10 mM MgCl2, 1 mM DTT, 10 μM Na3VO4, 100 μg/mL casein, 1% DMSO, 0.1 mM EGTA, pH 8.0, 10.0 μM ATP and 0.1 μCi [γ-^33P] ATP. The activity is assayed in the presence or absence of inhibitors [compounds of formula (I)] by measuring the incorporation of ^33P from [γ^33P] ATP into appropriate substrates. The assay is carried out in 96-well plates at ambient temperature for 30 minutes under conditions described below and terminated by the addition of 20 μL of 125 mM EDTA. Subsequently, 40 μL of the reaction mixture are transferred onto Immobilon-PVDF membrane (Millipore) previously soaked for 5 minutes with methanol, rinsed with water, then soaked for 5 minutes with 0.5% H3PO4 and mounted on vacuum manifold with disconnected vacuum source. After spotting all samples, vacuum is connected and each well-rinsed with 200 μL 0.5% H3PO4. Membranes are removed and washed 4× on a shaker with 1.0% H3PO4, once with ethanol. Membranes are counted after drying at ambient temperature, mounting in Packard TopCount 96-well frame, and addition of 10 μl/well of Microscint™ (Packard). IC50 values of compounds of formula (I) are calculated by linear regression analysis of the percentage inhibition of each compound in duplicate, at four concentrations (usually 0.01, 0.1, 1 and 10 μM). […]

Row | Compound | IC50 [nM]
1 | NCCCc1ccc(-n2cnc3cnc4cc(Cl)c(C#Cc5cccnc5)cc4c32)cc1 [Example 23, 3-[4-(7-Chloro-8-pyridin-3-ylethynyl-imidazo[4,5-c]quinolin-1-yl)-phenyl]-propylamine] | 500 to 1000
2 | NCCc1ccc(-n2cnc3cnc4cc(F)c(C#Cc5ccccc5)cc4c32)cc1 [Example 26, 2-[4-(7-Fluoro-8-phenylethynyl-imidazo[4,5-c]quinolin-1-yl)-phenyl]-ethylamine] | 500 to 1000
3 | NCCCc1ccc(-n2cnc3cnc4ccc(C#Cc5cccnc5)cc4c32)cc1 [Example 11, 3-[4-(8-Pyridin-3-ylethynyl-imidazo[4,5-c]quinolin-1-yl)-phenyl]-propylamine] | ≤ 500
4 | COc1ccc(C#Cc2cc3c(cc2F)ncc2ncn(-c4ccc(CCN)cc4)c23)cc1 [Example 28, 2-{4-[7-Fluoro-8-(4-methoxy-phenylethynyl)-imidazo[4,5-c]quinolin-1-yl]-phenyl}-ethylamine] | ≤ 500
5 | COc1cccc(C#Cc2cc3c(cc2F)ncc2ncn(-c4ccc(CCN)cc4)c23)c1 [Example 27, 2-{4-[7-Fluoro-8-(3-methoxy-phenylethynyl)-imidazo[4,5-c]quinolin-1-yl]-phenyl}-ethylamine] | 500 to 1000
6 | NCCCc1ccc(-n2cnc3cnc4ccc(C#Cc5ccccc5)cc4c32)cc1 [Example 8, 3-[4-(8-Phenylethynyl-imidazo[4,5-c]quinolin-1-yl)-phenyl]-propylamine] | ≤ 500
7 | NCCc1ccc(-n2cnc3cnc4ccc(C#Cc5cccnc5)cc4c32)cc1 [Example 4, 2-[4-(8-Pyridin-3-ylethynyl-imidazo[4,5-c]quinolin-1-yl)-phenyl]-ethylamine] | ≤ 500
8 | NCCCc1ccc(-n2cnc3cnc4ccc(/C=C/c5ccccc5)cc4c32)cc1 [Example 38, 3-[4-(8-trans-Styryl-imidazo[4,5-c]quinolin-1-yl)-phenyl]-propylamine] | ≤ 500
9 | NCCc1ccc(-n2cnc3cnc4cc(F)c(C#Cc5ccc6c(c5)OCO6)cc4c32)cc1 [Example 30, 2-[4-(7-Fluoro-8-benzo[1,3]dioxol-5-ylethynyl-imidazo[4,5-c]quinolin-1-yl)-phenyl]-ethylamine] | 500 to 1000
10 | COc1ccc(C#Cc2ccc3ncc4nc(C)n(-c5ccc(CCN)cc5)c4c3c2)cc1 [Example 34, 2-{4-[8-(4-Methoxy-phenylethynyl)-2-methyl-imidazo[4,5-c]quinolin-1-yl]-phenyl}-ethylamine] | ≤ 500
11 | Cc1nc2cnc3ccc(C#Cc4cccnc4)cc3c2n1-c1ccc(CCN)cc1 [Example 35, 2-[4-(2-Methyl-8-pyridin-3-ylethynyl-imidazo[4,5-c]quinolin-1-yl)-phenyl]-ethylamine] | ≤ 500
12 | NCCCc1ccc(-n2cnc3cnc4ccc(C#Cc5ccc6c(c5)OCO6)cc4c32)cc1 [Example 12, 3-[4-(8-Benzo[1,3]dioxol-5-ylethynyl-imidazo[4,5-c]quinolin-1-yl)-phenyl]-propylamine] | ≤ 500

Second part, the compound after the results:

Row | IC50 [nM] | Compound
13 | ≤ 500 | COc1cccc(C#Cc2ccc3ncc4ncn(-c5ccc(CCCN)cc5)c4c3c2)c1 [Example 9, 3-{4-[8-(3-Methoxy-phenylethynyl)-imidazo[4,5-c]quinolin-1-yl]-phenyl}-propylamine]
14 | ≤ 500 | COc1ccc(C#Cc2ccc3ncc4ncn(-c5ccc(CCN)cc5)c4c3c2)cc1 [Example 3, 2-{4-[8-(4-Methoxy-phenylethynyl)-imidazo[4,5-c]quinolin-1-yl]-phenyl}-ethylamine]
15 | ≤ 500 | Cc1nc2cnc3ccc(C#Cc4ccccc4)cc3c2n1-c1ccc(CCN)cc1 [Example 32, 2-[4-(2-Methyl-8-phenylethynyl-imidazo[4,5-c]quinolin-1-yl)-phenyl]-ethylamine]
16 | 500 to 1000 | COc1cccc(C#Cc2ccc3ncc4nc(C)n(-c5ccc(CCN)cc5)c4c3c2)c1 [Example 33, 2-{4-[8-(3-Methoxy-phenylethynyl)-2-methyl-imidazo[4,5-c]quinolin-1-yl]-phenyl}-ethylamine]
17 | ≤ 500 | COc1ccc(C#Cc2ccc3ncc4ncn(-c5ccc(CCCN)cc5)c4c3c2)cc1 [Example 10, 3-{4-[8-(4-Methoxy-phenylethynyl)-imidazo[4,5-c]quinolin-1-yl]-phenyl}-propylamine]
18 | ≤ 500 | NCCCc1ccc(-n2cnc3cnc4ccc(C#Cc5ccc(S(N)(=O)=O)cc5)cc4c32)cc1 [Example 13, 4-{1-[4-(3-Amino-propyl)-phenyl]-1H-imidazo[4,5-c]quinolin-8-ylethynyl}-benzenesulfonamide]
19 | 500 to 1000 | NCCc1ccc(-n2cnc3cnc4cc(F)c(C#Cc5cccnc5)cc4c32)cc1 [Example 29, 2-[4-(7-Fluoro-8-pyridin-3-ylethynyl-imidazo[4,5-c]quinolin-1-yl)-phenyl]-ethylamine]
